{"source": "patent US8748369B2", "about": "“Use of targeted nitroxide agents in bone healing” (University of Pittsburgh-Of the Commonwealth System of …, priority 2009, dated 2014)", "test_system": "32D cl 3 murine hematopoietic cells", "test": "Irradiation survival curves of 32D cl 3 cells", "assay_type": "cell-based, mouse", "settings": "cells incubated in compound", "description": "FIG. 16 illustrates the effect of GS conjugated nitroxide, XJB-5-125, on gamma-irradiation dose survival curves of 32D cl 3 murine hematopoietic cells.\nIrradiation survival curves were performed on cells from the 32D cl 3 mouse hematopoietic progenitor cell line, incubated in 10 μM JP4-039 for 1 hour before irradiation, or plated in methycellulose containing 10 μM JP4-030 after irradiation. Cells were irradiated from 0 to 8 Gy, plated in 0.8% methycellulose containing media, and incubated for 7 days at 37° C. Colonies of greater than 50 cells were counted and data analyzed by linear quadratic and single-hit, multi-target models.", "note": "Where a SMILES comes first, the peptide text is derived from it. [ ]: non-standard residue; d: D form. The star is where a group is joined. NH(TEMPO-4-yl) = CC1(C)CC(N*)CC(C)(C)N1[O]; Orn = NCCC[C@H](N)C(=O)O; Cbz = O=C(OCc1ccccc1)*; Boc = CC(C)(C)OC(=O)*"}
{"smiles": "CC(C)C[C@H](NC(=O)OC(C)(C)C)C(=O)N[C@H](Cc1ccccc1)C(=O)N1CCC[C@H]1C(=O)N[C@H](C(=O)N[C@@H](CCCNC(=O)OCc1ccccc1)C(=O)NC1CC(C)(C)N([O])C(C)(C)C1)C(C)C", "note": "[XJB-5-125] (Boc-L[dF]PV[Orn](Cbz)-{NH(TEMPO-4-yl)})", "values": [{"measurement": "Do of gamma-irradiation survival curve", "result": 1.138, "unit": "Gy"}, {"measurement": "n (shoulder on the survival curve)", "result": 18.24}]}
